Patent US12018059B2, “Human amylin analog polypeptides and methods of use” (Intarcia Therapeutics, Inc., priority 2018, dated 2024)
Read-outs that look alike come from different tables or passages of the source. Starred links: 1 amine or outer side, 2 acyl side, 3 side chain; linkers in the order of their positions; H or OH if unused. Positions of bridges follow the written chain, without caps; N, C: chain ends. Residues, ends and D or L forms follow the SMILES beside them. Groups on a side chain read outwards from the residue. *: point of attachment. C20 diacid = O=C(O)CCCCCCCCCCCCCCCCCCC(=O)*; γGlu = O=C(O)[C@H](CCC(=O)[*:2])N[*:1]

Columns and labels:
[1] = Stability of amylin analog polypeptides in solution at 37° C. (purity by LC/MS and HPLC); format: physicochemical; conditions: 1 mg/ml, trifluoro acetate salt
Description: Several amylin analog polypeptides described herein were tested, as the trifluoro acetate salt, for stability in DMSO (i.e., organosulfur solvent) or in aqueous (i.e., in DI water) at 1 mg/ml solution. These analog polypeptides were incubated at 37° C., and samples were withdrawn at various time intervals and analyzed by LC/MS and HPLC for determination of purity and mass of the parent peptide and extent of any degradation products. The purity results of these analyses are shown in Tables 6A & 6B and are considered indicative of stability.

[2] = Solubility of amylin analog polypeptides (visual inspection, room temperature); format: physicochemical; conditions: room temperature, read-out: Solubility
Description: The analog polypeptides described herein were tested for solubility in saline 20% DMSO in water (i.e., bioassay buffer) or in aqueous (DI water) at room temperature. Samples were visually inspected for clarity of the sample, any appearance of turbidity or haziness.

in vivo = assay: in vivo; parameters: species or system Sprague-Dawley rats; conditions: rat, iv, 0.033 mg/kg
How it was run: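 Male Sprague-Dawley rats, non-fasted (n=3), given peptide in saline as 1-h IV or SC infusion at 0.033 mg/kg, or SC bolus at 0.3 mg/kg; jugular blood to 48 h into K2EDTA plus protease inhibitors. Plasma extracted by precipitation or WCX solid-phase extraction, quantified by UPLC-MS/MS against standards in matching rat plasma.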

CC[C@H](C)[C@H](NC(=O)[C@@H]1CCCN1C(=O)CNC(=O)[C@H](Cc1ccccc1)NC(=O)[C@H](CC(N)=O)NC(=O)[C@H](CC(N)=O)NC(=O)[C@H](CO)NC(=O)[C@H](CO)NC(=O)[C@H](CCCCN)NC(=O)[C@H](Cc1c[nH]cn1)NC(=O)[C@H](CC(C)C)NC(=O)[C@H](CCC(=O)O)NC(=O)[C@H](CC(N)=O)NC(=O)[C@H](C)NC(=O)[C@H](CC(C)C)NC(=O)[C@H](CCCNC(=N)N)NC(=O)[C@H](CCC(N)=O)NC(=O)[C@@H](NC(=O)[C@H](C)NC(=O)[C@@H]1CSSC[C@H](NC(=O)[C@@H](N)CCCCNC(=O)CC[C@H](NC(=O)CC[C@H](NC(=O)CCCCCCCCCCCCCCCCCCC(=O)O)C(=O)O)C(=O)O)C(=O)N[C@@H](CC(N)=O)C(=O)N[C@@H]([C@@H](C)O)C(=O)N[C@@H](CO)C(=O)N[C@@H]([C@@H](C)O)C(=O)N1)[C@@H](C)O)C(=O)N[C@@H](CC(C)C)C(=O)N1CCC[C@H]1C(=O)N1CCC[C@H]1C(=O)N[C@H](C(=O)N[C@@H](CCCCN)C(=O)N[C@H](C(=O)NCC(=O)N[C@@H](CO)C(=O)N[C@@H](CCC(=O)O)C(=O)N[C@H](C(=O)N[C@@H](Cc1ccc(O)cc1)C(N)=O)[C@@H](C)O)C(C)C)[C@@H](C)O [Compound A64] (H-K([γGlu-γGlu-C20 diacid])CNTSTCATQRLANELHKSSNNFGPILPPTKVGSETY-NH2; disulfide 2-7; N-terminus assumed)
purity of parent peptide (indicative of stability) ([1]; 20% DMSO in DI Water, Day 0 room temp): 98.8% | purity of parent peptide (indicative of stability) ([1]; 20% DMSO in DI Water, Day 5 37° C.): 98.1% | purity of parent peptide (indicative of stability) ([1]; 20% DMSO in DI Water, Day 8 37° C.): 98.6% | purity of parent peptide (indicative of stability) ([1]; 20% DMSO in DI Water, Day 12 37° C.): 97.9% | purity of parent peptide (indicative of stability) ([1]; 20% DMSO in DI Water, Day 19 37° C.): 97.2% | purity of parent peptide (indicative of stability) ([1]; 20% DMSO in DI Water, Day 25 37° C.): 97.3% | purity of parent peptide (indicative of stability) ([1]; 20% DMSO in DI Water, Day 32 37° C.): 97.2% | purity of parent peptide (indicative of stability) ([1]; DI Water, Day 0 room temp): 100% | purity of parent peptide (indicative of stability) ([1]; DI Water, Day 5 37° C.): 99.1% | purity of parent peptide (indicative of stability) ([1]; DI Water, Day 8 37° C.): 98.1% | purity of parent peptide (indicative of stability) ([1]; DI Water, Day 12 37° C.): 98.1% | purity of parent peptide (indicative of stability) ([1]; DI Water, Day 19 37° C.): 97.4% | purity of parent peptide (indicative of stability) ([1]; DI Water, Day 25 37° C.): 97.3% | purity of parent peptide (indicative of stability) ([1]; DI Water, Day 32 37° C.): 88.5% | solubility ([2]; Acetate salt, 20% DMSO in DI H2O): 123 mg/mL | solubility ([2]; Acetate salt, DI H2O): 104 mg/mL | solubility ([2]; Acetate salt, Saline): 88.3 mg/mL | solubility ([2]; TFA salt, 20% DMSO in DI H2O): 56 mg/mL | solubility ([2]; TFA salt, DI H2O): 103 mg/mL | Vd (in vivo): 0.182 L/kg | clearance (in vivo): 3.85 mL/h/kg | half-life (in vivo): 37.2 h
